# Values quoted from earlier work as cited in patent US4144131A, “Immobilization of enzymes on human tissue or erythrocytes” (Wisconsin Alumni Research Foundation, priority 1974, dated 1979).
# System: soybean lipoxygenase
# Conditions: read-out: Km for oxygen, compared with oxygen concentrations in tumor tissue
compound,measurement,value
O=O [oxygen],Km,30 µM
